# Source: US11872262B2, “Means and methods for treating bacterial infections” (VIB VZW, priority 2017, dated 2024)
# Residues, ends and D or L forms follow the SMILES beside them.
# Test system: E. coli O157:H7
# Assay type: cell-based, Escherichia coli
# Details: screening-stage peptides tested at 1, 6, 12 and 25 μg/mL
# Text: In the present invention we used the statistical thermodynamics algorithm TANGO to identify aggregation prone regions (APR) in the proteome of E. coli strain O157:H7. This yielded 3535 sequences of at least 6 amino acids in length and a TANGO score of at least 20%. In order to generate efficient aggregation seeds, we employed a previously devised tandem repeat design ^19, 21, in which the APRs are repeated once and separated by a linker. Given the length limitation on solid phase peptide synthesis with regard to yield and purity, we focused on the 1542 APRs with a length of 7 amino acids. In order to maximize the potential of these peptides to induce aggregation in E. coli, we ranked the APRs by their frequency of occurrence throughout the E. coli proteome, allowing a single amino acid mismatch, and selected the first 75 most frequently occurring sequences from this list (Table 4). In the design pattern, and in order to increase the colloidal stability of these aggregating peptides, the APRs are flanked by aggregation gatekeepers, a class of residues that was previously shown to reduce aggregation kinetics^22-24. […] To generate the tandem we used a single proline residue as a linker between the gatekeeper-flanked APRs. In addition to the 75 peptides generated in this fashion, we added 2 variants of each of the first 25 peptides in the list by randomly mutating one residue in the first APR repeat to arginine to further modulate the aggregation propensity of the peptides (Table 4). All the peptides were generated using solid phase synthesis at 200 nmole scale and dissolved in DMSO to a theoretical stock concentration of 2 mM (assuming 100% synthesis efficiency). Peptide activity on the growth of E. coli O157:H7 was measured at dilutions of the peptide corresponding to concentrations of 1, 6, 12 and 25 μg/mL. […] The Matthews Correlations Coefficient (MCC) with the measured activity was 0.1 at 12 μg/mL and 0.24 at 25 μg/mL.
row,Structure (SMILES),E. coli O157 (apparent MIC in screen) [µg/mL]
1,CC(C)C[C@H](NC(=O)[C@H](C)NC(=O)[C@H](CCCNC(=N)N)NC(=O)[C@@H]1CCCN1C(=O)[C@H](CCCNC(=N)N)NC(=O)[C@H](CCCNC(=N)N)NC(=O)[C@H](CCCNC(=N)N)NC(=O)[C@@H](NC(=O)[C@H](C)NC(=O)[C@@H](NC(=O)[C@H](CC(C)C)NC(=O)[C@H](CC(C)C)NC(=O)[C@H](C)NC(=O)[C@@H](N)CCCNC(=N)N)[C@@H](C)O)C(C)C)C(=O)N[C@@H](CC(C)C)C(=O)N[C@H](C(=O)N[C@@H](C)C(=O)N[C@H](C(=O)N[C@@H](CC(C)C)C(=O)N[C@@H](CCCNC(=N)N)C(=O)N[C@@H](CCCNC(=N)N)C(=O)O)C(C)C)[C@@H](C)O [Peptide P116] (H-RALLTAVRRRPRALLTAVLRR-OH; N-terminus and C-terminus assumed),6
2,CC(C)C[C@H](NC(=O)CNC(=O)[C@H](CCCNC(=N)N)NC(=O)[C@@H]1CCCN1C(=O)[C@H](CCCNC(=N)N)NC(=O)[C@H](CCCNC(=N)N)NC(=O)[C@H](CCC(N)=O)NC(=O)[C@H](CC(C)C)NC(=O)[C@H](C)NC(=O)[C@H](CCCNC(=N)N)NC(=O)[C@H](CC(C)C)NC(=O)[C@H](CC(C)C)NC(=O)CNC(=O)[C@@H](N)CCCNC(=N)N)C(=O)N[C@@H](CC(C)C)C(=O)N[C@@H](CC(C)C)C(=O)N[C@@H](C)C(=O)N[C@@H](CC(C)C)C(=O)N[C@@H](CCC(N)=O)C(=O)N[C@@H](CCCNC(=N)N)C(=O)N[C@@H](CCCNC(=N)N)C(=O)O [Peptide P124] (H-RGLLRALQRRPRGLLLALQRR-OH; N-terminus and C-terminus assumed),12
3,CC(C)C[C@H](NC(=O)[C@H](C)NC(=O)[C@@H](NC(=O)[C@H](CC(C)C)NC(=O)[C@H](CCC(N)=O)NC(=O)[C@H](CCCNC(=N)N)NC(=O)[C@@H]1CCCN1C(=O)[C@H](CCCNC(=N)N)NC(=O)[C@H](CCCNC(=N)N)NC(=O)[C@@H](NC(=O)[C@H](CCCNC(=N)N)NC(=O)[C@H](CC(C)C)NC(=O)[C@H](C)NC(=O)[C@@H](NC(=O)[C@H](CC(C)C)NC(=O)[C@H](CCC(N)=O)NC(=O)[C@@H](N)CCCNC(=N)N)C(C)C)C(C)C)C(C)C)C(=O)N[C@@H](CC(C)C)C(=O)N[C@H](C(=O)N[C@@H](CCCNC(=N)N)C(=O)N[C@@H](CCCNC(=N)N)C(=O)O)C(C)C [Peptide P117] (H-RQLVALRVRRPRQLVALLVRR-OH; N-terminus and C-terminus assumed),25
4,CC(C)C[C@H](NC(=O)[C@H](C)NC(=O)[C@H](CCCNC(=N)N)NC(=O)[C@@H]1CCCN1C(=O)[C@H](CCCNC(=N)N)NC(=O)[C@H](CCCNC(=N)N)NC(=O)[C@H](CC(C)C)NC(=O)[C@@H](NC(=O)[C@H](C)NC(=O)[C@@H](NC(=O)[C@H](CC(C)C)NC(=O)[C@H](CC(C)C)NC(=O)[C@H](C)NC(=O)[C@@H](N)CCCNC(=N)N)[C@@H](C)O)C(C)C)C(=O)N[C@@H](CC(C)C)C(=O)N[C@H](C(=O)N[C@@H](C)C(=O)N[C@H](C(=O)N[C@@H](CC(C)C)C(=O)N[C@@H](CCCNC(=N)N)C(=O)N[C@@H](CCCNC(=N)N)C(=O)O)C(C)C)[C@@H](C)O [Peptide P16] (H-RALLTAVLRRPRALLTAVLRR-OH; N-terminus and C-terminus assumed),25
5,CC(C)C[C@H](NC(=O)[C@H](C)NC(=O)[C@@H](N)CCCNC(=N)N)C(=O)N[C@@H](C)C(=O)N[C@@H](CCCNC(=N)N)C(=O)N[C@@H](C)C(=O)N[C@@H](CC(C)C)C(=O)N[C@@H](CC(C)C)C(=O)N[C@@H](CCCNC(=N)N)C(=O)N[C@@H](CCCNC(=N)N)C(=O)N1CCC[C@H]1C(=O)N[C@@H](CCCNC(=N)N)C(=O)N[C@@H](C)C(=O)N[C@@H](CC(C)C)C(=O)N[C@@H](C)C(=O)N[C@H](C(=O)N[C@@H](C)C(=O)N[C@@H](CC(C)C)C(=O)N[C@@H](CC(C)C)C(=O)N[C@@H](CCCNC(=N)N)C(=O)N[C@@H](CCCNC(=N)N)C(=O)O)C(C)C [Peptide P112] (H-RALARALLRRPRALAVALLRR-OH; N-terminus and C-terminus assumed),25
6,CC(C)C[C@H](NC(=O)[C@H](C)NC(=O)[C@H](CCCNC(=N)N)NC(=O)[C@@H]1CCCN1C(=O)[C@H](CCCNC(=N)N)NC(=O)[C@H](CCCNC(=N)N)NC(=O)[C@H](CC(C)C)NC(=O)[C@H](CC(C)C)NC(=O)[C@H](C)NC(=O)[C@@H](NC(=O)[C@H](CCCNC(=N)N)NC(=O)[C@H](CC(C)C)NC(=O)[C@H](C)NC(=O)[C@@H](N)CCCNC(=N)N)C(C)C)C(=O)N[C@@H](C)C(=O)N[C@H](C(=O)N[C@@H](C)C(=O)N[C@@H](CC(C)C)C(=O)N[C@@H](CC(C)C)C(=O)N[C@@H](CCCNC(=N)N)C(=O)N[C@@H](CCCNC(=N)N)C(=O)O)C(C)C [Peptide P87] (H-RALRVALLRRPRALAVALLRR-OH; N-terminus and C-terminus assumed),25
7,CC(C)C[C@H](NC(=O)[C@H](C)NC(=O)[C@H](CC(C)C)NC(=O)[C@@H](NC(=O)[C@H](CCC(N)=O)NC(=O)[C@H](C)NC(=O)[C@H](CCCNC(=N)N)NC(=O)[C@@H]1CCCN1C(=O)[C@H](CCCNC(=N)N)NC(=O)[C@H](CCCNC(=N)N)NC(=O)[C@H](CC(C)C)NC(=O)[C@H](CC(C)C)NC(=O)[C@H](C)NC(=O)[C@H](CC(C)C)NC(=O)[C@@H](NC(=O)[C@H](CCC(N)=O)NC(=O)[C@H](C)NC(=O)[C@@H](N)CCCNC(=N)N)C(C)C)C(C)C)C(=O)N[C@@H](CC(C)C)C(=O)N[C@@H](CCCNC(=N)N)C(=O)N[C@@H](CCCNC(=N)N)C(=O)O [Peptide P40] (H-RAQVLALLRRPRAQVLALLRR-OH; N-terminus and C-terminus assumed),25
8,CC(C)C[C@H](NC(=O)[C@H](C)NC(=O)[C@H](CC(C)C)NC(=O)[C@H](CC(C)C)NC(=O)[C@H](CC(C)C)NC(=O)[C@H](CCCNC(=N)N)NC(=O)[C@@H]1CCCN1C(=O)[C@H](CCCNC(=N)N)NC(=O)[C@H](CCCNC(=N)N)NC(=O)[C@H](CO)NC(=O)[C@H](CC(C)C)NC(=O)[C@H](CC(C)C)NC(=O)[C@H](C)NC(=O)[C@H](CC(C)C)NC(=O)[C@H](CC(C)C)NC(=O)[C@H](CC(C)C)NC(=O)[C@@H](N)CCCNC(=N)N)C(=O)N[C@@H](CC(C)C)C(=O)N[C@@H](CO)C(=O)N[C@@H](CCCNC(=N)N)C(=O)N[C@@H](CCCNC(=N)N)C(=O)O [Peptide P3] (H-RLLLALLSRRPRLLLALLSRR-OH; N-terminus and C-terminus assumed),12
9,CC(C)C[C@H](NC(=O)CNC(=O)[C@H](CCCNC(=N)N)NC(=O)[C@@H]1CCCN1C(=O)[C@H](CCCNC(=N)N)NC(=O)[C@H](CCCNC(=N)N)NC(=O)[C@H](C)NC(=O)[C@H](CC(C)C)NC(=O)[C@H](CC(C)C)NC(=O)[C@H](C)NC(=O)[C@H](CC(C)C)NC(=O)[C@H](CC(C)C)NC(=O)CNC(=O)[C@@H](N)CCCNC(=N)N)C(=O)N[C@@H](CC(C)C)C(=O)N[C@@H](C)C(=O)N[C@@H](CC(C)C)C(=O)N[C@@H](CC(C)C)C(=O)N[C@@H](C)C(=O)N[C@@H](CCCNC(=N)N)C(=O)N[C@@H](CCCNC(=N)N)C(=O)O [Peptide P14] (H-RGLLALLARRPRGLLALLARR-OH; N-terminus and C-terminus assumed),12
